Counter-ions that a name gives are not always drawn.
Key:
[1] = system: cMYC; assay: Inhibition of cMYC expression (mRNA, real-time PCR) in MV4-11 cells; format: cell-based; settings: Human AML MV4-11 cells, 3 h; for IC50: read-out: c-myc activity
Method: MV4-11 cells (CRL-9591) were plated at a density of 2.5×10^4 cells per well in 96 well U-bottom plates and treated with increasing concentrations of test compound or DMSO (0.1%) in IMDM media containing 10% FBS and penicillin/streptomycin, and incubated for 3 h at 37° C. Triplicate wells were used for each concentration. Cells were pelleted by centrifugation and harvested using the mRNA Catcher PLUS kit according to manufacturer's instructions. The eluted mRNA isolated was then used in a one-step quantitative real-time PCR reaction, using components of the RNA UltraSense™ One-Step Kit (Life Technologies) together with Applied Biosystems TaqMan® primer-probes for cMYC and Cyclophilin. Real-time PCR plates were run on a ViiA™7 real time PCR machine (Applied Biosystems), data was analyzed, normalizing the Ct values for cMYC to an internal control, prior to determining the fold expression of each sample, relative to the control.

[2] = system: MV4-11 cells; assay: Inhibition of cell proliferation in MV4-11 cells (Cell Titer Aqueous One); format: cell-based; settings: Human AML MV-4-11 cells, 72 h; for IC50: MV4-11
Method: MV4-11 cells (CRL-9591) were plated at a density of 5×10^4 cells per well in 96 well flat bottom plates and treated with increasing concentrations of test compound or DMSO (0.1%) in IMDM media containing 10% FBS and penicillin/streptomycin. Triplicate wells were used for each concentration and a well containing only media was used as a control. Plates were incubated at 37° C., 5% CO2 for 72 h before adding 20 μL of the Cell Titer Aqueous One Solution (Promega) to each well and incubated at 37° C., 5% CO2 for an additional 3-4 h. The absorbance was read at 490 nm in a spectrophotometer and the percentage of cell titer relative to DMSO-treated cells was calculated after correcting for background by subtracting the blank well's signal. IC50 values were calculated using the GraphPad Prism software.

[3] = target: T1, Brd 4 bromodomain 2 (BRD4(2)) (Homo sapiens, UniProt O60885); assay: AlphaScreen inhibition of tetra-acetylated histone H4 binding to BRD4(2); settings: BRD4(2) at 100 nM, tetra-acetylated histone H4 peptide, 30 min incubation; for IC50: read-out: Alpha Screen BRD4(2)
T1 construct: N-terminally His-tagged bromodomains (BRD4(1) at 20 nM and BRD4(2) at 100 nM); made in house; host or cells: E. coli BL21(DE3)
Method: (§1) Proteins were cloned and overexpressed with a N-terminal 6×His tag, then purified by nickel affinity followed by size exclusion chromatography. Briefly, E. coli BL21(DE3) cells were transformed with a recombinant expression vector encoding N-terminally Nickel affinity tagged bromodomains from Brd2, Brd3, Brd4. Cell cultures were incubated at 37° C. with shaking to the appropriate density and induced overnight with IPTG. The supernatant of lysed cells was loaded onto Ni-IDA column for purification. Eluted protein was pooled, concentrated and further purified by size exclusion chromatography. Fractions representing monomeric protein were pooled, concentrated, aliquoted, and frozen at −80° C. for use in subsequent experiments.
(§2) Binding of tetra-acetylated histone H4 peptide (Millipore) and BET bromodomains was confirmed by Amplified Luminescent Proximity Homogenous Assay (AlphaScreen). N-terminally His-tagged bromodomains (BRD4(1) at 20 nM and BRD4(2) at 100 nM) and biotinylated tetra-acetylated histone H4 (10-25 nM) were incubated in the presence of nickel chelate acceptor beads and streptavidin donor beads (PerkinAlmer, 6760000K) added to a final concentration of 2 μg/ml under green light in a white 96 well microtiter plate (Greiner). For inhibition assays, serially diluted compounds were added to the reaction mixtures in a 0.1% final concentrations of DMSO. Final buffer concentrations were 50 mM HEPES, 100 mM NaCl and 0.1% BSA buffer, pH 7.4 and optimized to 30 min incubation time. Assay plates were read at 570 nm on a Synergy H4 Plate Reader (Biotek). IC50 values were determined from a dose response curve.

[4] = system: hIL-6; assay: Inhibition of hIL-6 mRNA transcription in LPS-stimulated U937 cells; format: cell-based; settings: Homo sapiens, U-937, PMA-differentiated U937 cells, 1 h pretreatment, LPS 3 h, read-out: IL-6 activity
Method: Human leukemic monocyte lymphoma U937 cells (CRL-1593.2) were plated at a density of 3.2×10^4 cells per well in a 96-well plate in 100 μL RPMI-1640 containing 10% FBS and penicillin/streptomycin, and differentiated into macrophages for 3 days in 60 ng/mL PMA ([…]) at 37° C. in 5% CO2 prior to the addition of compound. The cells were pretreated for 1 h with increasing concentrations of test compound in 0.1% DMSO prior to stimulation with 1 ug/mL lipopolysaccharide from Escherichia coli. Triplicate wells were used for each concentration. The cells were incubated at 37° C., 5% CO2 for 3 h before the cells were harvested. At time of harvest, media was removed and cells were rinsed in 200 μL PBS. Cells were harvested using the mRNA Catcher PLUS kit according to manufacturer's instructions. The eluted mRNA was then used in a one-step quantitative real-time PCR reaction using components of the RNA UltraSense™ One-Step Kit (Life Technologies) together with Applied Biosystems TaqMan® primer-probes for hIL-6 and Cyclophilin. Real-time PCR plates were run on a ViiA™7 real time PCR machine (Applied Biosystems), data was analyzed, normalizing the Ct values for hIL-6 to an internal control, prior to determining the fold expression of each sample, relative to the control.

[5] = target: T2, Brd4 bromodomain 1 (BRD4(1)) (Homo sapiens, UniProt O60885); assay: AlphaScreen inhibition of tetra-acetylated histone H4 binding to BRD4(1); settings: BRD4(1) at 20 nM, tetra-acetylated histone H4 peptide, 30 min incubation; read-out: Alpha Screen BRD4(1)
T2 construct: N-terminally His-tagged bromodomains (BRD4(1) at 20 nM and BRD4(2) at 100 nM); made in house; host or cells: E. coli BL21(DE3)
Method: as §1, §2

IC50 [1]	IC50 [2]	IC50 [3]	IC50 [4]	IC50 [5]	Alpha Screen BRD4(2) [3]	Structure (SMILES)	c-myc activity [1]	Cell Proliferation activity [2]
3 to 30 µM	3 to 30 µM	3 to 30 µM	3 to 30 µM	≤ 0.3 µM		CC(=O)c1cccc(-c2[nH]c(-c3ccccc3)nc2-c2n[nH]c(=O)n2C2CC2)c1 [Example 1, 3-(5-(3-acetylphenyl)-2-phenyl-1H-imidazol-4-yl)-4-cyclopropyl-1H-1,2,4-triazol-5(4H)-one hydrochloride]		
3 to 30 µM	3 to 30 µM		3 to 30 µM	≤ 0.3 µM	Not Active	Cn1ncc2ccc(-c3[nH]c(-c4ccccc4)nc3-c3n[nH]c(=O)n3C3CC3)cc21 [Example 7, 4-cyclopropyl-3-(5-(1-methyl-1H-indazol-6-yl)-2-phenyl-1H-imidazol-4-yl)-1H-1,2,4-triazol-5(4H)-one hydrochloride]		
			3 to 30 µM	≤ 0.3 µM	Not Active	CC(=O)c1cc(-c2[nH]c(-c3ccccc3)nc2-c2n[nH]c(=O)n2C2CC2)ccc1F [Example 8, 3-(5-(3-acetyl-4-fluorophenyl)-2-phenyl-1H-imidazol-4-yl)-4-cyclopropyl-1H-1,2,4-triazol-5(4H)-one hydrochloride]	Not Active	Not Active
3 to 30 µM	3 to 30 µM		3 to 30 µM	0.3 to 3 µM	Not Active	CC(=O)c1cc(F)cc(-c2[nH]c(-c3ccccc3)nc2-c2n[nH]c(=O)n2C2CC2)c1 [Example 9, 3-(5-(3-acetyl-5-fluorophenyl)-2-phenyl-1H-imidazol-4-yl)-4-cyclopropyl-1H-1,2,4-triazol-5(4H)-one hydrochloride]		
		0.3 to 3 µM		3 to 30 µM		Cn1ncc2cc(-c3[nH]c(-c4ccccc4)nc3-c3n[nH]c(=O)n3C3CC3)ccc21 [Example 10, 4-cyclopropyl-3-(5-(1-methyl-1H-indazol-5-yl)-2-phenyl-1H-imidazol-4-yl)-1H-1,2,4-triazol-5(4H)-one hydrochloride]	Not Active	Not Active
3 to 30 µM	3 to 30 µM	0.3 to 3 µM		0.3 to 3 µM		Cc1n[nH]c2ccc(-c3[nH]c(-c4ccccc4)nc3-c3n[nH]c(=O)n3C3CC3)cc12 [Example 13, 4-cyclopropyl-3-(5-(3-methyl-1H-indazol-5-yl)-2-phenyl-1H-imidazol-4-yl)-1H-1,2,4-triazol-5(4H)-one hydrochloride]		
3 to 30 µM	3 to 30 µM	≤ 0.3 µM	3 to 30 µM	≤ 0.3 µM		Cn1nnc2ccc(-c3[nH]c(-c4ccccc4)nc3-c3n[nH]c(=O)n3C3CC3)cc21 [Example 14, 4-cyclopropyl-3-(5-(1-methyl-1H-benzo[d][1,2,3]triazol-6-yl)-2-phenyl-1H-imidazol-4-yl)-1H-1,2,4-triazol-5(4H)-one hydrochloride]		

From patent US10292968B2, “Substituted heterocycles as bromodomain inhibitors” (Zenith Epigenetics Ltd., priority 2014, dated 2019)
